Measured values as given in patent publication US8993632B2, “Inhibitors of the 11-beta-hydroxysteroid dehydrogenase type 1 enzyme” (AbbVie Inc., priority 2005, dated 2015).

Experiments:
[1] = molecular target: T1, truncated human 11β-HSD-1 enzyme (24-287AA) (Homo sapiens, UniProt P28845); assay: 11β-HSD-1 enzymatic Scintillation Proximity Assay (SPA); assay type: biochemical
T1 construct: truncated human 11β-HSD-1 enzyme (24-287AA); made in house; host or cells: E. coli (crude lysate)
Method: (§1) The reaction was stopped by adding a non-specific 11β-HSD inhibitor, 18β-glycyrrhetinic acid. The tritiated cortisol was captured by a mixture of an anti-cortisol monoclonal antibody and SPA beads coated with anti-mouse antibodies. The reaction plate was shaken at room temperature and the radioactivity bound to SPA beads was then measured on a β-scintillation counter. The 11-βHSD-1 assay was carried out in 96-well microtiter plates in a total volume of 220 μl. […] In order to drive the reaction in the forward direction, 1 mM G-6-P was also added. Solid compound was dissolved in DMSO to make a 10 mM stock followed by a subsequent 10-fold dilution with 3% DMSO in Tris/EDTA buffer (pH 7.4). […] Reactions were initiated by the addition of 10 μl of 0.1 mg/ml E. coli lysates overexpressing 11β-HSD-1 enzyme. After shaking and incubating plates for 30 minutes at room temperature, reactions were stopped by adding 10 μl of 1 mM glycyrrhetinic acid. The product, tritiated cortisol, was captured by adding 10 μl of […] monoclonal anti-cortisol antibodies and 100 μl SPA beads coated with anti-mouse antibodies. After shaking for 30 minutes, plates were read on a liquid scintillation counter Topcount. Percent inhibition was calculated based on the background and the maximal signal. Wells that contained substrate without compound or enzyme were used as the background, while the wells that contained substrate and enzyme without any compound were considered as maximal signal. Percent of inhibition of each compound was calculated relative to the maximal signal and IC50 curves were generated. This assay was applied to 11β-HSD-2 as well, whereby tritiated cortisol and NAD^+ were used as substrate and cofactor, respectively.

human 11-β-HSD-2 = molecular target: T2, human 11-β-HSD-2 (Homo sapiens, UniProt P80365); assay: 11β-HSD-2 Scintillation Proximity Assay (tritiated cortisol, NAD+); assay type: biochemical; settings: human enzyme, SPA
T2 sequence (P80365 1-405): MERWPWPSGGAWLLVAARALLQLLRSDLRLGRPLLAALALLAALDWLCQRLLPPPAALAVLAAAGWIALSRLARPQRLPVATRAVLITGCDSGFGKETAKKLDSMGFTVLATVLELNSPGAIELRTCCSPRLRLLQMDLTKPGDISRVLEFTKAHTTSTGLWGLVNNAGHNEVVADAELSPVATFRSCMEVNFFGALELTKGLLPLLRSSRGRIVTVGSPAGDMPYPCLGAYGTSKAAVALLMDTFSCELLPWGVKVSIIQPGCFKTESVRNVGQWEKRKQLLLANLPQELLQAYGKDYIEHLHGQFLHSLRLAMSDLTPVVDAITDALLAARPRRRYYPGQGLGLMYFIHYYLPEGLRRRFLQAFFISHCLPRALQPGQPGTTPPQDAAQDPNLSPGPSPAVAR
Method: as §1

T1 sequence (P28845 24-287): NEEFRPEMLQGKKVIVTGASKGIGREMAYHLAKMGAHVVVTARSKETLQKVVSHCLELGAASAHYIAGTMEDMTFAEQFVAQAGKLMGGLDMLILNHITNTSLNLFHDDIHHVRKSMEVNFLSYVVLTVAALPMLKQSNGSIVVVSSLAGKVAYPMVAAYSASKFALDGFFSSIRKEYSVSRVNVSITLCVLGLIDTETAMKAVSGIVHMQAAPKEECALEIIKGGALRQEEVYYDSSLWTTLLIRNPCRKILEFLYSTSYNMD

| Structure (SMILES) | IC50 [1] | IC50 (human 11-β-HSD-2) |
| --- | --- | --- |
| Cc1ccccc1CN1CCC(C)(C(=O)N[C@@H]2[C@@H]3C[C@@H]4C[C@H]2C[C@@](C(N)=O)(C4)C3)C1=O (stereo partly drawn) [CC] | 23 nM | 12000 nM |
| NC(=O)[C@]12C[C@@H]3C[C@H](C1)[C@@H](NC(=O)C1(c4ccccc4)CCCC1)[C@@H](C3)C2 [Compound K, E-4-{[(1-phenylcyclopentyl)carbonyl]amino}adamantane-1-carboxamide] | 43 nM | 16000 nM |
| NC(=O)[C@]12C[C@@H]3C[C@H](C1)[C@@H](NC(=O)C1(c4cccc(F)c4)CCCC1)[C@@H](C3)C2 [Compound L, E-4-({[1-(3-fluorophenyl)cyclopentyl]carbonyl}amino)adamantane-1-carboxamide] | 25 nM | 16000 nM |
| NC(=O)[C@]12C[C@@H]3C[C@H](C1)[C@@H](NC(=O)C1(c4ccc(F)cc4Cl)CCCC1)[C@@H](C3)C2 [Compound M, E-4-({[1-(2-chloro-4-fluorophenyl)cyclopentyl]carbonyl}amino)adamantane-1-carboxamide] | 30 nM | > 30000 nM |
| CC(C)(C(=O)N[C@@H]1[C@@H]2C[C@@H]3C[C@H]1C[C@@](C(N)=O)(C3)C2)c1ccc(-c2ccncc2)cc1 [Compound T, E-4-{[2-methyl-2-(4-pyridin-4-ylphenyl)propanoyl]amino}adamantane-1-carboxamide] | 31 nM | > 30000 nM |
| CC1(C(=O)N[C@@H]2[C@@H]3C[C@@H]4C[C@H]2C[C@@](C(N)=O)(C4)C3)CCN(Cc2ccccc2Cl)C1=O (stereo partly drawn) [DD] | 23 nM | 6300 nM |
| Cn1cc(-c2ccc(C(C)(C)C(=O)N[C@@H]3[C@@H]4C[C@@H]5C[C@H]3C[C@@](C(N)=O)(C5)C4)cc2)cn1 [FF, E-4-({2-methyl-2-[4-(1-methyl-1H-pyrazol-4-yl)phenyl]propanoyl}amino)adamantane-1-carboxamide] | 28 nM | > 100000 nM |
| NC(=O)[C@]12C[C@@H]3C[C@H](C1)[C@@H](NC(=O)C1(c4ccc(Cl)cc4)CCCCC1)[C@@H](C3)C2 [G, E-4-({[1-(4-chlorophenyl)cyclohexyl]carbonyl}amino)adamantane-1-carboxamide] | 59 nM | 7400 nM |
| CC(C)(C(=O)N[C@@H]1[C@@H]2C[C@@H]3C[C@H]1C[C@@](C(N)=O)(C3)C2)c1cccc(Br)c1 [GG, E-4-{[2-(3-bromophenyl)-2-methylpropanoyl]amino}adamantane-1-carboxamide] | 17 nM | 9300 nM |
| NC(=O)[C@]12C[C@@H]3C[C@H](C1)[C@@H](NC(=O)C1(c4ccc(Cl)cc4)CC1)[C@@H](C3)C2 [H, E-4-({[1-(4-chlorophenyl)cyclopropyl]carbonyl}amino)adamantane-1-carboxamide] | 33 nM | > 30000 nM |
| Cc1noc(C)c1-c1ccc(C(C)(C)C(=O)N[C@@H]2[C@@H]3C[C@@H]4C[C@H]2C[C@@](C(N)=O)(C4)C3)cc1 [HH, E-4-({2-[4-(3,5-dimethylisoxazol-4-yl)phenyl]-2-methylpropanoyl}amino)adamantane-1-carboxamide] | 44 nM | 40000 nM |
| NC(=O)[C@]12C[C@@H]3C[C@H](C1)[C@@H](NC(=O)C1(c4ccc(Cl)cc4)CCCC1)[C@@H](C3)C2 [I, E-4-({[1-(4-chlorophenyl)cyclopentyl]carbonyl}amino)adamantane-1-carboxamide] | – | 12000 nM |
| CC(C)(C(=O)N[C@@H]1[C@@H]2C[C@@H]3C[C@H]1C[C@@](C(N)=O)(C3)C2)c1ccc(-c2cccnc2)cc1 [II, E-4-{[2-methyl-2-(4-pyridin-3-ylphenyl)propanoyl]amino}adamantane-1-carboxamide] | – | 44000 nM |
| CC(C)(C(=O)N[C@@H]1[C@@H]2C[C@@H]3C[C@H]1C[C@@](C(N)=O)(C3)C2)c1ccc(Cl)cc1 [J, E-4-{[2-(4-chlorophenyl)-2-methylpropanoyl]amino}adamantane-1-carboxamide] | 33 nM | – |
| CC(C)(C(=O)N[C@@H]1[C@@H]2C[C@@H]3C[C@H]1C[C@@](C(=O)NCc1ccc(C(=O)O)cc1)(C3)C2)c1cccs1 [JJ, 4-{[({(E)-4-[(2-methyl-2-thien-2-ylpropanoyl)amino]-1-adamantyl}carbonyl)amino]methyl}benzoic acid] | 95 nM | 60000 nM |
| NC(=O)[C@]12C[C@@H]3C[C@H](C1)[C@@H](NC(=O)C1(c4ccc(F)cc4)CCCC1)[C@@H](C3)C2 [N, E-4-({[1-(4-fluorophenyl)cyclopentyl]carbonyl}amino)adamantane-1-carboxamide] | 31 nM | > 30000 nM |

Further lines, results first:

| IC50 [1] | IC50 (human 11-β-HSD-2) | Structure (SMILES) |
| --- | --- | --- |
| 38 nM | 16000 nM | NC(=O)[C@]12C[C@@H]3C[C@H](C1)[C@@H](NC(=O)C1(c4ccccc4F)CCCC1)[C@@H](C3)C2 [O, E-4-({[1-(2-fluorophenyl)cyclopentyl]carbonyl}amino)adamantane-1-carboxamide] |
| 38 nM | > 30000 nM | CC1(C(=O)N[C@@H]2[C@@H]3C[C@@H]4C[C@H]2C[C@@](C(N)=O)(C4)C3)CCCCC1 [P, E-4-{[(1-methylcyclohexyl)carbonyl]amino}adamantane-1-carboxamide] |
| 36 nM | 16000 nM | NC(=O)[C@]12C[C@@H]3C[C@H](C1)[C@@H](NC(=O)C1(c4ccc(Cl)cc4Cl)CC1)[C@@H](C3)C2 [Q, E-4-({[1-(2,4-dichlorophenyl)cyclopropyl]carbonyl}amino)adamantane-1-carboxamide] |
| 27 nM | 21000 nM | COc1ccc(C2(C(=O)N[C@@H]3[C@@H]4C[C@@H]5C[C@H]3C[C@@](C(N)=O)(C5)C4)CC2)cc1 [R, E-4-({[1-(4-methoxyphenyl)cyclopropyl]carbonyl}amino)adamantane-1-carboxamide] |
| 37 nM | 15000 nM | Cc1ccc(C2(C(=O)N[C@@H]3[C@@H]4C[C@@H]5C[C@H]3C[C@@](C(N)=O)(C5)C4)CC2)cc1 [S, E-4-({[1-(4-methylphenyl)cyclopropyl]carbonyl}amino)adamantane-1-carboxamide] |
| 16 nM | 12000 nM | CC(C)(C(=O)N[C@@H]1[C@@H]2C[C@@H]3C[C@H]1C[C@@](C(N)=O)(C3)C2)c1cccs1 [U, E-4-[(2-methyl-2-thien-2-ylpropanoyl)amino]adamantane-1-carboxamide] |
| 19 nM | 15000 nM | CC(C)(C(=O)N[C@@H]1[C@@H]2C[C@@H]3C[C@H]1C[C@@](C(N)=O)(C3)C2)c1ccsc1 [V, E-4-[(2-methyl-2-thien-3-ylpropanoyl)amino]adamantane-1-carboxamide] |
| 23 nM | > 30000 nM | CC(C)(C(=O)N[C@@H]1[C@@H]2C[C@@H]3C[C@H]1C[C@@](C(N)=O)(C3)C2)c1ccc(C(F)(F)F)cn1 [W, E-4-({2-methyl-2-[5-(trifluoromethyl)pyridin-2-yl]propanoyl}amino)adamantane-1-carboxamide] |
| 104 nM | > 30000 nM | CC(C)(C(=O)N[C@@H]1[C@@H]2C[C@@H]3C[C@H]1C[C@@](C(N)=O)(C3)C2)c1ccc(-c2ccc(C(F)(F)F)cn2)cc1 [X, E-4-[(2-methyl-2-{4-[5-(trifluoromethyl)pyridin-2 yl]phenyl}propanoyl)amino]adamantane-1-carboxamide] |
| 18 nM | 13000 nM | COc1ccc(C2(C(=O)N[C@@H]3[C@@H]4C[C@@H]5C[C@H]3C[C@@](C(N)=O)(C5)C4)CCCC2)cc1 [Y, E-4-({[1-(4-methoxyphenyl)cyclopentyl]carbonyl}amino)adamantane-1-carboxamide] |
| 21 nM | 23000 nM | CC(C)(C(=O)N[C@@H]1[C@@H]2C[C@@H]3C[C@H]1C[C@@](C(N)=O)(C3)C2)c1ccc(Br)cc1 [Z, E-4-{[2-(4-bromophenyl)-2-methylpropanoyl]amino}adamantane-1-carboxamide] |
